From patent EP0600342A1, “Hispidospermidin and pharmaceutical compositions” (F. HOFFMANN-LA ROCHE AG, priority 1992, dated 1994)
“Also recorded” adds a separate entry of the source.

Tests used:
[1] = test system: partially purified rat brain PLC; test: Inhibitory activity against PLC (hydrolysis of radiolabelled PI); type: biochemical; details: 250 µM PI substrate, 2 mM CaCl₂, Tris-acetate buffer pH 5.5, 20 min at 30 °C; read-out: IC₅₀
Protocol: Inhibitory activity of hispidospermidin against PLC was measured. The assay mixture (0.1 ml) contained 200 mM Tris-acetate buffer (pH 5.5), 2 mM CaCl₂, 250 µM PI (suspended in the buffer, specific activity: 800 dpm/nmole) and enzyme. In the standard assay, 20 µl of inhibitor in 15 mM Tis-HCl buffer (pH 7.5) was added to the substrate suspension (50 µl). The reaction was started with addition of the enzyme solution prepared from partially purified rat brain PLC (30 µl, ca. 5 µg protein) and incubated for 20 min. at 30 °C. The reaction was terminated by adding 0.3 ml of unlabeled PI (200 µM) solution containing 1 mg/ml of bovine serum albumin and 1 mM EGTA, followed by adding of 0.3 ml of 7.5% ice cold trichloroacetic acid containing 3 mM CaCl₂. Under the conditions, the enzyme hydrolyzed about 30 % of substrate in the assay mixture. As a positive control showing 100% inhibition of PLC, 20 µl of 25 mM EDTA was added to the assay mixture. The incubation mixture was kept on ice for 10 min asn centrifuged at 1,700 x g for 10 min. The radioactivity of an aliquot (0.2 ml) of the supernatant was measured by liquid scintillation counter (ALOKA).

[2] = Solubility (physico-chemical properties); type: physicochemical; details: qualitative, by solvent
Acute toxicity = type: in vivo; details: no species, dose or route stated

## CCN(CC)CCCC(C)Nc1c2ccc(Cl)cc2nc2ccc(OC)cc12 (stereo not shown) [Quinacrine]
[1]
  IC50: 314 µM

## NCCCNCCCCNCCCN [Sperimine]
[1]
  IC50: 59.3 µM

## CN1CCN(CCCN2c3ccccc3Sc3ccc(C(F)(F)F)cc32)CC1 [Trifluoperazine]
[1]
  IC50: 150 µM

## C[C@@H]1CC[C@H]2[C@]13CC[C@@]1(C)O[C@]2(C)[C@@H](NCCCCN(C)CCCN(C)C)[C@H]1C3 [Hispidospermidin, hispidospermidin]
[2]
  Solubility: Soluble in MeOH, CHCl₃, acetone, acidic water; also recorded: Insoluble in water
Acute toxicity
  Acute toxicity: not observed
[1]
  IC50: 15.7 µM

## NC[C@H]1O[C@H](O[C@H]2[C@H](O)[C@@H](O[C@H]3O[C@H](CO)[C@@H](O)[C@H](N)[C@H]3O)[C@H](N)C[C@@H]2N)[C@H](N)C[C@@H]1O [Tobramycin]
[1]
  IC50: 29.9 µM
